Each compound was assayed against T1, Recombinant human EP300 containing the bromodomain (EP300-BD (1040-1161)) (Homo sapiens, UniProt Q09472) (assay: EP300 Alphascreen binding assay).
T1 construct: Recombinant human EP300 bromodomain (EP300-BD (1040-1161)); made in house; host or cells: E. coli BL21-CodonPlus (DE3), modified pET vector
T1 sequence (Q09472 1040-1161): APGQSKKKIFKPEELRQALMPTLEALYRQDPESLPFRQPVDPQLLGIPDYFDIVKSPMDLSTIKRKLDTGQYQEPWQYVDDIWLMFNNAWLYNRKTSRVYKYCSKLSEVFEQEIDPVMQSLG
How it was run: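 Displacement of a biotinylated acetyl-K56 histone H3 peptide from the N-His bromodomain construct (1040-1161) measured by AlphaScreen proximity, beads at 7.5 μg/ml final, read 60 min after addition. Protein, peptide and compound first incubated 1 h at room temperature, pH 7.5 HEPES buffer; IC50 by four-parameter logistic fit.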

`Cc1noc(C)c1-c1cnc2c(c1)c(-c1ccc(C(=O)O)cc1Cl)cn2C(c1ccccn1)C1CCCC1` (stereo not drawn) [P-0027, 3-chloro-4-(1-(cyclopentyl(pyridin-2-yl)methyl)-5-(3,5-dimethylisoxazol-4-yl)-1H-pyrrolo[2,3-b]pyridin-3-yl)benzoic acid] and `Cc1cc(-c2cn(C(c3ccccn3)C3CCCC3)c3ncc(-c4c(C)noc4C)cc23)ccc1C(=O)O` (stereo not drawn) [P-0028, 4-(1-(cyclopentyl(pyridin-2-yl)methyl)-5-(3,5-dimethylisoxazol-4-yl)-1H-pyrrolo[2,3-b]pyridin-3-yl)-2-methylbenzoic acid] fall in the same range of IC50: 0.1 to 1000 nM for the first, 0.1 to 1000 nM for the second.

Compared with `Cc1noc(C)c1-c1cnc2c(c1)c(-c1ccc(C(=O)O)c(C(F)(F)F)c1)cn2C(c1ccccn1)C1CCCC1` (stereo not drawn) [P-0029, 4-(1-(cyclopentyl(pyridin-2-yl)methyl)-5-(3,5-dimethylisoxazol-4-yl)-1H-pyrrolo[2,3-b]pyridin-3-yl)-2-(trifluoromethyl)benzoic acid], `Cc1noc(C)c1-c1cnc2c(c1)c(-c1ccc(C(=O)O)c(O)c1)cn2C(c1ccccn1)C1CCCC1` (stereo not drawn) [P-0030, 4-(1-(cyclopentyl(pyridin-2-yl)methyl)-5-(3,5-dimethylisoxazol-4-yl)-1H-pyrrolo[2,3-b]pyridin-3-yl)-2-hydroxybenzoic acid] is higher in IC50: 0.1 to 1000 nM for the first, 1000 to 8000 nM for the second.

`Cc1noc(C)c1-c1cnc2c(c1)c(-c1ccc(CC(=O)O)cc1)cn2C(c1ccccn1)C1CCCC1` (stereo not drawn) [P-0031, 2-(4-(1-(cyclopentyl(pyridin-2-yl)methyl)-5-(3,5-dimethylisoxazol-4-yl)-1H-pyrrolo[2,3-b]pyridin-3-yl)phenyl)acetic acid] and `Cc1noc(C)c1-c1cnc2c(c1)c(-c1ccc(C(C)(C)C(=O)O)cc1)cn2C(c1ccccn1)C1CCCC1` (stereo not drawn) [P-0032, 2-(4-(1-(cyclopentyl(pyridin-2-yl)methyl)-5-(3,5-dimethylisoxazol-4-yl)-1H-pyrrolo[2,3-b]pyridin-3-yl)phenyl)-2-methylpropanoic acid] fall in the same range of IC50: 0.1 to 1000 nM for the first, 0.1 to 1000 nM for the second.

`Cc1noc(C)c1-c1cnc2c(c1)c(-c1ccc(C3(C(=O)O)CC3)cc1)cn2C(c1ccccn1)C1CCCC1` (stereo not drawn) [P-0033, 1-(4-(1-(cyclopentyl(pyridin-2-yl)methyl)-5-(3,5-dimethylisoxazol-4-yl)-1H-pyrrolo[2,3-b]pyridin-3-yl)phenyl)cyclopropane-1-carboxylic acid] and `Cc1noc(C)c1-c1cnc2c(c1)c(-c1ccc(C(F)(F)C(=O)O)cc1)cn2C(c1ccccn1)C1CCCC1` (stereo not drawn) [P-0034, 2-(4-(1-(cyclopentyl(pyridin-2-yl)methyl)-5-(3,5-dimethylisoxazol-4-yl)-1H-pyrrolo[2,3-b]pyridin-3-yl)phenyl)-2,2-difluoroacetic acid] fall in the same range of IC50: 0.1 to 1000 nM for the first, 0.1 to 1000 nM for the second.

`COc1ncccc1-n1cc(-c2ccc(C(=O)O)cc2OC(F)(F)F)c2cc(-c3c(C)noc3C)cnc21` [P-0316, 4-(5-(3,5-dimethylisoxazol-4-yl)-1-(2-methoxypyridin-3-yl)-1H-pyrrolo[2,3-b]pyridin-3-yl)-3-(trifluoromethoxy)benzoic acid] and `Cc1ncccc1-n1cc(-c2ccc(C(=O)O)cc2OC(F)(F)F)c2cc(-c3c(C)noc3C)cnc21` [P-0317, 4-(5-(3,5-dimethylisoxazol-4-yl)-1-(2-methylpyridin-3-yl)-1H-pyrrolo[2,3-b]pyridin-3-yl)-3-(trifluoromethoxy)benzoic acid] fall in the same range of IC50: 0.1 to 1000 nM for the first, 0.1 to 1000 nM for the second.

`Cc1noc(C)c1-c1cnc2c(c1)c(-c1ccc(C(=O)O)cc1OC(F)(F)F)cn2-c1cnn(C)c1` [P-0318, 4-(5-(3,5-dimethylisoxazol-4-yl)-1-(1-methyl-1H-pyrazol-4-yl)-1H-pyrrolo[2,3-b]pyridin-3-yl)-3-(trifluoromethoxy)benzoic acid] and `Cc1noc(C)c1-c1cnc2c(c1)c(-c1ccc(C(=O)O)cc1OC(F)(F)F)cn2-c1cncnc1` [P-0319, 4-(5-(3,5-dimethylisoxazol-4-yl)-1-(pyrimidin-5-yl)-1H-pyrrolo[2,3-b]pyridin-3-yl)-3-(trifluoromethoxy)benzoic acid] fall in the same range of IC50: 0.1 to 1000 nM for the first, 0.1 to 1000 nM for the second.

`Cc1noc(C)c1-c1cnc2c(c1)c(-c1ccc(C(=O)O)cc1OC(F)(F)F)cn2-c1cnc(N)nc1` [P-0320, 4-(1-(2-aminopyrimidin-5-yl)-5-(3,5-dimethylisoxazol-4-yl)-1H-pyrrolo[2,3-b]pyridin-3-yl)-3-(trifluoromethoxy)benzoic acid] and `Cc1noc(C)c1-c1cnc2c(c1)c(-c1ccc(C(=O)O)cc1OC(F)(F)F)cn2-c1cnc(N(C)C)nc1` [P-0321] fall in the same range of IC50: 0.1 to 1000 nM for the first, 0.1 to 1000 nM for the second.

`Cc1noc(C)c1-c1cnc2c(c1)c(-c1ccc(C(=O)O)cc1OC(F)(F)F)cn2-c1ccc(C(=O)O)cc1` [P-0322, 4-(1-(4-carboxyphenyl)-5-(3,5-dimethylisoxazol-4-yl)-1H-pyrrolo[2,3-b]pyridin-3-yl)-3-(trifluoromethoxy)benzoic acid] and `Cc1noc(C)c1-c1cnc2c(c1)c(-c1ccc(C(=O)O)cc1OC(F)(F)F)cn2-c1ccc(C(N)=O)cc1` [P-0323, 4-(1-(4-carbamoylphenyl)-5-(3,5-dimethylisoxazol-4-yl)-1H-pyrrolo[2,3-b]pyridin-3-yl)-3-(trifluoromethoxy)benzoic acid] fall in the same range of IC50: 0.1 to 1000 nM for the first, 0.1 to 1000 nM for the second.

`COc1cc(C(=O)O)ncc1-c1cn(-c2ccncc2Cl)c2ncc(-c3c(C)noc3C)cc12` [P-0324, 5-(1-(3-chloropyridin-4-yl)-5-(3,5-dimethylisoxazol-4-yl)-1H-pyrrolo[2,3-b]pyridin-3-yl)-4-methoxypicolinic acid] and `CCOc1cc(C(=O)O)c(F)cc1-c1cn(-c2ccc(F)cc2F)c2ncc(-c3c(C)noc3C)cc12` [P-0330, 4-(1-(2,4-difluorophenyl)-5-(3,5-dimethylisoxazol-4-yl)-1H-pyrrolo[2,3-b]pyridin-3-yl)-5-ethoxy-2-fluorobenzoic acid] fall in the same range of IC50: 0.1 to 1000 nM for the first, 0.1 to 1000 nM for the second.

`Cc1noc(C)c1-c1cnc2c(c1)c(-c1ccc(C(=O)O)cc1OCC(F)F)cn2[C@H]1CCOC1` [P-0325, (S)-3-(2,2-difluoroethoxy)-4-(5-(3,5-dimethylisoxazol-4-yl)-1-(tetrahydrofuran-3-yl)-1H-pyrrolo[2,3-b]pyridin-3-yl)benzoic acid] and `Cc1noc(C)c1-c1cnc2c(c1)c(-c1c(Cl)cc(C(=O)O)cc1OCC(F)F)cn2[C@H]1CCOC1` [P-0333, (S)-3-chloro-5-(2,2-difluoroethoxy)-4-(5-(3,5-dimethylisoxazol-4-yl)-1-(tetrahydrofuran-3-yl)-1H-pyrrolo[2,3-b]pyridin-3-yl)benzoic acid] fall in the same range of IC50: 0.1 to 1000 nM for the first, 0.1 to 1000 nM for the second.

`CCn1cc(-n2cc(-c3ccc(C(=O)O)cc3OCC(F)F)c3cc(-c4c(C)noc4C)cnc32)c(C)n1` [P-0326, 3-(2,2-difluoroethoxy)-4-(5-(3,5-dimethylisoxazol-4-yl)-1-(1-ethyl-3-methyl-1H-pyrazol-4-yl)-1H-pyrrolo[2,3-b]pyridin-3-yl)benzoic acid] and `Cc1noc(C)c1-c1cnc2c(c1)c(-c1ccc(C(=O)O)cc1OCC(F)F)cn2-c1cnc(N2CCC2)nc1` [P-0328, 4-(1-(2-(azetidin-1-yl)pyrimidin-5-yl)-5-(3,5-dimethylisoxazol-4-yl)-1H-pyrrolo[2,3-b]pyridin-3-yl)-3-(2,2-difluoroethoxy)benzoic acid] fall in the same range of IC50: 0.1 to 1000 nM for the first, 0.1 to 1000 nM for the second.

`Cc1noc(C)c1-c1cnc2c(c1)c(-c1c(F)cc(C(=O)O)cc1OCC(F)F)cn2-c1ccccc1` [P-0327, 3-(2,2-difluoroethoxy)-4-(5-(3,5-dimethylisoxazol-4-yl)-1-phenyl-1H-pyrrolo[2,3-b]pyridin-3-yl)-5-fluorobenzoic acid] and `Cc1noc(C)c1-c1cnc2c(c1)c(-c1c(Cl)cc(C(=O)O)cc1OCC(F)F)cn2-c1ccccc1` [P-0332, 3-chloro-5-(2,2-difluoroethoxy)-4-(5-(3,5-dimethylisoxazol-4-yl)-1-phenyl-1H-pyrrolo[2,3-b]pyridin-3-yl)benzoic acid] fall in the same range of IC50: 0.1 to 1000 nM for the first, 0.1 to 1000 nM for the second.

`CCOc1cc(C(=O)O)nc(OCC)c1-c1cn(-c2ccc(F)cc2F)c2ncc(-c3c(C)noc3C)cc12` [P-0329, 5-(1-(2,4-difluorophenyl)-5-(3,5-dimethylisoxazol-4-yl)-1H-pyrrolo[2,3-b]pyridin-3-yl)-4,6-diethoxypicolinic acid] and `Cc1noc(C)c1-c1cnc2c(c1)c(-c1c(Cl)cc(C(=O)O)cc1OCC(F)F)cn2-c1cnc(N2CCC2)nc1` [P-0331, 4-(1-(2-(azetidin-1-yl)pyrimidin-5-yl)-5-(3,5-dimethylisoxazol-4-yl)-1H-pyrrolo[2,3-b]pyridin-3-yl)-3-chloro-5-(2,2-difluoroethoxy)benzoic acid] fall in the same range of IC50: 0.1 to 1000 nM for the first, 0.1 to 1000 nM for the second.

`Cc1noc(C)c1-c1cnc2c(c1)c(-c1ccc(C(=O)O)cc1OC1CCC1)cn2-c1ncccc1C#N` [P-0334, 4-(1-(3-cyanopyridin-2-yl)-5-(3,5-dimethylisoxazol-4-yl)-1H-pyrrolo[2,3-b]pyridin-3-yl)-3-cyclobutoxybenzoic acid] and `Cc1noc(C)c1-c1cnc2c(c1)c(-c1ccc(C(=O)O)cc1OC1CC1)cn2-c1ncccc1C#N` [P-0337, 4-(1-(3-cyanopyridin-2-yl)-5-(3,5-dimethylisoxazol-4-yl)-1H-pyrrolo[2,3-b]pyridin-3-yl)-3-cyclopropoxybenzoic acid] fall in the same range of IC50: 0.1 to 1000 nM for the first, 0.1 to 1000 nM for the second.

`Cc1noc(C)c1-c1cnc2c(c1)c(-c1ccc(C(=O)O)cc1OC(F)(F)F)cn2C1(CC#N)CCC1` [P-0335, 4-(1-(1-(cyanomethyl)cyclobutyl)-5-(3,5-dimethylisoxazol-4-yl)-1H-pyrrolo[2,3-b]pyridin-3-yl)-3-(trifluoromethoxy)benzoic acid] and `Cc1noc(C)c1-c1cnc2c(c1)c(-c1ccc(C(=O)O)cc1OC(C)C)cn2-c1ncccc1C#N` [P-0336, 4-(1-(3-cyanopyridin-2-yl)-5-(3,5-dimethylisoxazol-4-yl)-1H-pyrrolo[2,3-b]pyridin-3-yl)-3-isopropoxybenzoic acid] fall in the same range of IC50: 0.1 to 1000 nM for the first, 0.1 to 1000 nM for the second.
